# According to patent US10301298B2, “Methods, compounds, and compositions for the treatment of angiotensin-related diseases” (University of Southern California, priority 2013, dated 2019):
# “Also recorded” adds a separate entry of the source.
# Assays:
# Mas [1] = biological target: T1, Mas (Homo sapiens, UniProt P04201); assay: Competition binding assay, displacement of fluorescent Ang(1-7) from Mas-transfected CHO cells; design: concentration or dose not given beside the values; details: CHO cells transfected with Human mas1, on ice
# T1 construct: expressed in transfected cells
# T1 sequence (P04201 1-325): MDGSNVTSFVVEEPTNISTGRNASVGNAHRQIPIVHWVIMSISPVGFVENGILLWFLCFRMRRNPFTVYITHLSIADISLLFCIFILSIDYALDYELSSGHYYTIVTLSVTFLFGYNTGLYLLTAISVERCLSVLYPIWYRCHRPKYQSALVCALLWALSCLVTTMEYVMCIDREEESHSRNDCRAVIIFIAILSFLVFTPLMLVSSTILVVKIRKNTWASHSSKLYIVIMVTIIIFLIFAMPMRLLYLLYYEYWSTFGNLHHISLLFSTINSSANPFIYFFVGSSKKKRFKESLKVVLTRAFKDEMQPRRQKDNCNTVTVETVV
# Method: CHO cells stably transfected with recombinant Human mas1 proto-oncogen driven by the human cytomegalovirus were grown to 80% confluency. The cells were detached with trypsin and harvested by centrifugation. Cells were washed three times in progressively colder buffers. The final number of cells per assay was 5×10^5. All subsequent steps were performed on ice. Test compound was added to the cells for 10 minutes prior to addition of fluorescently labeled A(1-7). After 10 minutes further incubation, the cells were washed to remove unbound A(1-7) and the fluorescence bound was read at an excitation of 490 nm and an emission of 520 nm.
# db/db mice = assay: Bone marrow cell counts and progenitor colonies in db/db mice; format: in vivo; details: 500 mcg/kg/day subcutaneously, 14 days
# Method: The femurs and tibia were collected from db/db mice treated 500 mcg/kg/day Ang(1-7) or Compound 7 subcutaneously for 14 days were euphanized and the bone marrow were collected by flushing with PBS containing 2% fetal calf serum. After collection of the bone marrow, the red blood cells will be lysed with a hypotonic solution (described above), mixed with 0.04% trypan blue and the number of nucleated cells was assessed by hematocytometer under light microscopy. Aliquots of cells were then resuspended at 1×10^6 cells/ml (GM and GEMM, bone marrow), 1.5×10^6 cells/ml (BFU-E, bone marrow). One hundred μ1 of each suspension was added to 900 μl of semisolid medium containing 0.9% methyl cellulose in Iscove's MDM, 15% fetal calf serum, 1% bovine serum albumin, 10 μg/ml bovine pancreatic insulin, 200 μg/ml human transferrin, 10^−4 M 2-mercaptoethanol, 2 mM glutamine, 10 ng/ml recombinant murine interleukin 3, 10 ng/ml recombinant human interleukin 6, 50 ng/ml recombinant murine stem cell factor and 3 units/ml erthropoietin. This mixture was then added to duplicate wells of a 24 well plate. The cultures were then placed at 37° C. in a humidified atmosphere of 5% CO2 in air. At day 14, the number of progenitor colonies formed was enumerated under phase contrast microscopy.
# The bone marrow cells were also cultured to assess the number of MSCs by a CFU—F assay. 2.5×10^5 cells/ml, 2 ml per well, were diluted into Mesencult medium (Stem Cell Technologies, Vancouver, BC, Canada) and 2 mL were placed in each well of a 24 well plate. The cultures were then incubated at 37° C. in a humidified atmosphere of 5% CO2 in air. At days 2, 5 and 8, the number of progenitor colonies formed was enumerated under phase contrast microscopy.
# Mas [2] = biological target: T1, Mas; assay: NO production in CHO cells stably transfected with Human Mas1; format: cell-based
# Method: Transfected cells that express Mas were used to identify and evaluate provided compounds as Mas agonists, by promoting NO production as readouts. CHO cells stably transfected with pTEJ-8 vector containing recombinant Human Mas1 clone were grown to confluency. Cells were washed three times for 30/5/5 minutes with prewarmed (37° C.) Tyrodes Salts (supplemented with 1 g/L NaHCO3, and 1.9 g/L d-Glucose). Cells were incubated for a short time in 700 μL of supplemented Tyrodes salts containing 10 μM PTIO, 100 μM DAN, and 1 mM L-arginine. When using antagonist for competition assays, cells were exposed to the inhibitor at 1×10^−7 M for 15 minutes, before additional drugs are added.
# Chemicals (10^−8 to 10^−6 M or the maximum concentration found not to cause cytotoxicity) to be screened were added to the cell medium and the plates were agitated for 1 minute before being placed into the incubator for 2 hours. After 2 hours, cellular supernatants were transferred to opaque 96 well plates, and the fluorescence intensity was recorded at an ex/em of 380/425.
% Displacement (Mas [1]),ability to enhance NO production (fluorescence) (Mas [2]; Mas-transfected CHO cells),"NO production with co-administration of A779 (Mas [2]; with A779, selective Mas antagonist, 1×10^−7 M)",Compound,bone marrow counts (db/db mice)
18.6%,,,"CCCCOC(=O)NS(=O)(=O)c1ccc(OC(F)(F)F)cc1-c1ccc(CN2CCN(C)C2=O)cn1 [Compound 8, butyl (2-(5-((3-methyl-2-oxoimidazolidin-1-yl)methyl)pyridin-2-yl)-4-(trifluoromethoxy)phenyl) sulfonylcarbamate]",
17.3%,,,"CCCCOC(=O)NS(=O)(=O)c1ccc(OC(F)(F)F)cc1-c1ccc(CN2CCOCC2)cn1 [Compound 9, butyl (2-(5-(morpholinomethyl)pyridin-2-yl)-4-(trifluoromethoxy)phenyl)sulfonyl-carbamate]",
22.0%,,,"CCCCOC(=O)NS(=O)(=O)c1ccc(OC(F)(F)F)cc1-c1ccc(CN2CCN(C)CC2)cn1 [Compound 10, butyl (2-(5-((4-methylpiperazin-1-yl)methyl)pyridin-2-yl)-4-(trifluoromethoxy)phenyl)sulfonylcarbamate]",
23.0%,,,"CCCCOC(=O)NS(=O)(=O)c1ccc(OC(F)(F)F)cc1-c1ncc(Cn2ccnc2)s1 [Compound 11, butyl (2-(5-((1H-imidazol-1-yl)methyl)thiazol-2-yl)-4-(trifluoromethoxy)phenyl)sulfonylcarbamate]",
,concentration dependent increase in NO,back to baseline fluorescence,"Asp-Arg-Val-Tyr-Ile-His-Pro [Ang(1-7), reference compound]",increase bone marrow counts; also recorded: increased the bone marrow counts
